Measurements reported in ChEMBL document CHEMBL1201862, “PubChem BioAssay data set” (2004).
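Where inhibition never reached the appropriate level, the endpoint shown equals the highest concentration tested. Otherwise, values were interpolated linearly from a five-concentration, 48-hour dose response in 96-well plates. Abbreviation: GI50, concentration required for 50% inhibition of growth.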 The source made the active and inactive calls. No stated cut-off is given here; in the data, active = GI50 up to about 1.1 µM and inactive = higher.

Assays:
Experiment in all cases: NCI anticancer screen, dose series, 48 h
HT-29 = test system: HT-29
SK-OV-3 = test system: SK-OV-3
OVCAR-4 = test system: OVCAR-4
SF-539 = test system: SF-539
Malme-3M = test system: Malme-3M
LXFL 529 = test system: LXFL 529
KM12 = test system: KM12
A498 = test system: A498
K562 = test system: K562
TK-10 = test system: TK-10
COLO 205 = test system: COLO 205
OVCAR-3 = test system: OVCAR-3
A549 = test system: A549
CAKI-1 = test system: CAKI-1
OVCAR-5 = test system: OVCAR-5
U-251 = test system: U-251
NCI-H522 = test system: NCI-H522

Measured: GI50

CC(C)=CC(=O)Cc1nc2cc(C)c(C)cc2[nH]c1=O
inactive: HT-29 > 100 µM | SK-OV-3 > 100 µM | OVCAR-4 87.1 µM | SF-539 > 100 µM | Malme-3M > 100 µM | LXFL 529 > 100 µM | KM12 > 100 µM | A498 > 100 µM | K562 > 100 µM | TK-10 > 100 µM | COLO 205 > 100 µM | OVCAR-3 > 100 µM | A549 > 100 µM | CAKI-1 > 100 µM | OVCAR-5 > 100 µM | U-251 > 100 µM

CCN(CC)CCNC(=O)c1cccc2nc3ccccc3nc12
inactive: HT-29 4.55 µM | SK-OV-3 > 49 µM | OVCAR-4 12.8 µM | SF-539 8.45 µM | Malme-3M 11.4 µM | LXFL 529 16.9 µM | KM12 10.3 µM | A498 11.7 µM | K562 1.38 µM | TK-10 27.2 µM | COLO 205 3.78 µM | OVCAR-3 8.34 µM | A549 8.05 µM | NCI-H522 28.5 µM | CAKI-1 > 39.3 µM | OVCAR-5 15.8 µM | U-251 16.9 µM

CC(=O)C1=CSC2[C@H](NC(=O)Cc3ccccc3)C(=O)N2C1C(=O)OC(c1ccccc1)c1ccccc1 (stereo partly drawn)
inactive: HT-29 > 100 µM | SK-OV-3 > 100 µM | OVCAR-4 > 100 µM | SF-539 > 100 µM | Malme-3M > 100 µM | LXFL 529 > 100 µM | KM12 > 100 µM | A498 > 100 µM | K562 > 100 µM | TK-10 > 100 µM | COLO 205 > 100 µM | OVCAR-3 > 100 µM | A549 91.8 µM | NCI-H522 > 100 µM | CAKI-1 59 µM

Sc1nnc(COc2ccc(Cl)cc2)[nH]1
inactive: HT-29 > 100 µM | SK-OV-3 > 100 µM | OVCAR-4 > 100 µM | SF-539 > 100 µM | Malme-3M > 100 µM | LXFL 529 > 100 µM | KM12 > 100 µM | A498 > 100 µM | K562 > 100 µM | TK-10 > 100 µM | COLO 205 > 100 µM | OVCAR-3 > 100 µM | A549 > 100 µM | NCI-H522 > 100 µM | CAKI-1 > 100 µM | OVCAR-5 > 100 µM | U-251 > 100 µM

O=C(CCc1n[nH]c(=S)o1)Nc1ccccc1C(F)(F)F
inactive: HT-29 > 100 µM | SK-OV-3 > 100 µM | OVCAR-4 > 100 µM | SF-539 > 100 µM | Malme-3M > 100 µM | LXFL 529 > 100 µM | KM12 > 100 µM | A498 > 100 µM | K562 66.7 µM | TK-10 > 100 µM | COLO 205 57.4 µM | OVCAR-3 > 100 µM | NCI-H522 > 100 µM | CAKI-1 > 100 µM | OVCAR-5 > 100 µM | U-251 > 100 µM

CCOC(=O)C(/C(=N/NC(=O)OC)C(=O)Nc1ccc(C(C)=O)cc1)c1cnc2ccccc2n1 (stereo not drawn)
inactive: HT-29 > 100 µM | SK-OV-3 > 100 µM | OVCAR-4 > 100 µM | SF-539 > 100 µM | Malme-3M > 100 µM | LXFL 529 > 100 µM | KM12 > 100 µM | A498 > 100 µM | K562 > 100 µM | TK-10 > 100 µM | COLO 205 > 100 µM | OVCAR-3 > 100 µM | A549 > 100 µM | NCI-H522 > 100 µM | CAKI-1 > 100 µM | OVCAR-5 > 100 µM | U-251 > 100 µM

O=c1c2cccc3cccc(c4n1CCCN=4)c32
inactive: HT-29 > 100 µM | SK-OV-3 > 100 µM | OVCAR-4 > 100 µM | SF-539 > 100 µM | Malme-3M > 100 µM | LXFL 529 > 100 µM | KM12 > 100 µM | A498 > 100 µM | K562 > 100 µM | TK-10 47.5 µM | COLO 205 > 100 µM | OVCAR-3 > 100 µM | A549 > 100 µM | NCI-H522 > 100 µM | CAKI-1 > 100 µM | OVCAR-5 88.1 µM | U-251 > 100 µM

CC1OC(=O)N(CCCC=C2SCCCS2)C1=O (stereo not drawn)
inactive: HT-29 > 100 µM | SK-OV-3 > 100 µM | OVCAR-4 > 100 µM | SF-539 > 100 µM | Malme-3M > 100 µM | LXFL 529 > 100 µM | KM12 > 100 µM | A498 > 100 µM | K562 > 100 µM | TK-10 > 100 µM | COLO 205 > 100 µM | OVCAR-3 > 100 µM | A549 > 100 µM | NCI-H522 > 100 µM | OVCAR-5 > 100 µM | U-251 > 100 µM

CC(=O)NNc1nc(C)c(C(/C=C/c2ccc(Cl)cc2)=N/NC(=S)NN)s1
inactive: HT-29 > 100 µM | SK-OV-3 > 100 µM | OVCAR-4 > 100 µM | SF-539 > 100 µM | Malme-3M > 100 µM | LXFL 529 > 100 µM | KM12 > 100 µM | A498 > 100 µM | K562 > 100 µM | TK-10 > 100 µM | COLO 205 > 100 µM | A549 > 100 µM | NCI-H522 > 100 µM | CAKI-1 > 100 µM | OVCAR-5 > 100 µM | U-251 > 100 µM

CC(Oc1ccc(OCC2CCCCC2)cc1)C(=O)NCCO (stereo not drawn)
inactive: HT-29 99.3 µM | SK-OV-3 > 100 µM | OVCAR-4 > 100 µM | SF-539 > 100 µM | Malme-3M > 100 µM | LXFL 529 > 100 µM | KM12 > 100 µM | A498 48 µM | K562 > 100 µM | TK-10 > 100 µM | OVCAR-3 64.9 µM | A549 > 100 µM | NCI-H522 87.1 µM | U-251 > 100 µM

CN(C)/N=N/c1ccc(C(N)=O)cc1
inactive: HT-29 > 100 µM | SK-OV-3 > 100 µM | OVCAR-4 > 100 µM | SF-539 > 100 µM | Malme-3M > 100 µM | LXFL 529 > 100 µM | KM12 > 100 µM | A498 > 100 µM | K562 > 100 µM | TK-10 > 100 µM | COLO 205 > 100 µM | OVCAR-3 > 100 µM | A549 > 100 µM | NCI-H522 > 100 µM | CAKI-1 > 100 µM | OVCAR-5 > 100 µM | U-251 > 100 µM

Cn1c2c(c3ccccc31)CCN(CCCN1CCN(c3cccc(Cl)c3)CC1)C2=O
inactive: HT-29 12.5 µM | SK-OV-3 38.5 µM | SF-539 18.1 µM | LXFL 529 16.2 µM | A498 3.05 µM | K562 14.8 µM | TK-10 27.8 µM | COLO 205 15.1 µM | A549 49.3 µM | NCI-H522 18.8 µM | CAKI-1 20.8 µM | U-251 3.27 µM

CC(C)C(Sc1nc(-c2ccccc2)c(-c2ccccc2)[nH]1)C(=O)NN (stereo not drawn)
inactive: HT-29 > 100 µM | SK-OV-3 > 100 µM | OVCAR-4 > 100 µM | SF-539 > 100 µM | Malme-3M > 100 µM | LXFL 529 > 100 µM | KM12 > 100 µM | A498 > 100 µM | TK-10 92.5 µM | COLO 205 > 100 µM | OVCAR-3 98.4 µM | A549 > 100 µM | NCI-H522 74.8 µM | CAKI-1 > 100 µM | OVCAR-5 > 100 µM | U-251 > 100 µM

CCOC(=O)Cn1c(=O)n(C)c(=O)c2c1ncn2Cc1ccccc1
inactive: HT-29 > 100 µM | SK-OV-3 > 100 µM | SF-539 > 100 µM | Malme-3M > 100 µM | LXFL 529 > 100 µM | KM12 > 100 µM | A498 > 100 µM | K562 > 100 µM | TK-10 > 100 µM | COLO 205 > 100 µM | OVCAR-3 > 100 µM | A549 > 100 µM | NCI-H522 > 100 µM | CAKI-1 > 100 µM | OVCAR-5 > 100 µM | U-251 > 100 µM

COc1ccc(/C=N\O[Si](C)(C)C(C)(C)C)cc1O[Si](C)(C)C(C)(C)C
inactive: HT-29 17.7 µM | SK-OV-3 30.6 µM | OVCAR-4 19 µM | SF-539 18.5 µM | Malme-3M 17.6 µM | LXFL 529 16.1 µM | KM12 17.6 µM | A498 16.7 µM | K562 18.3 µM | TK-10 20.4 µM | COLO 205 22.5 µM | OVCAR-3 17.1 µM | A549 18 µM | CAKI-1 25.1 µM | OVCAR-5 22.4 µM | U-251 19.7 µM

OCCCCn1cnc2c(O)ncnc21
inactive: HT-29 > 100 µM | OVCAR-4 > 100 µM | SF-539 > 100 µM | Malme-3M > 100 µM | LXFL 529 > 100 µM | KM12 > 100 µM | A498 > 100 µM | K562 > 100 µM | TK-10 > 100 µM | COLO 205 > 100 µM | OVCAR-3 > 100 µM | A549 > 100 µM | CAKI-1 > 100 µM | OVCAR-5 > 100 µM

COc1ccc([C@@H]2CC(=O)N2)cc1
inactive: HT-29 > 100 µM | SK-OV-3 > 100 µM | OVCAR-4 > 100 µM | SF-539 > 100 µM | Malme-3M > 100 µM | LXFL 529 > 100 µM | KM12 > 100 µM | A498 > 100 µM | K562 > 100 µM | TK-10 > 100 µM | COLO 205 > 100 µM | A549 > 100 µM | NCI-H522 > 100 µM | CAKI-1 > 100 µM | OVCAR-5 > 100 µM | U-251 > 100 µM
